Measured values reported in patent US11203608B2, “Platinum-containing compounds, and related compositions and uses thereof” (Massachusetts Institute of Technology, priority 2019, dated 2021).

Tests used:
[1] = system: A-tdt, AP-tdt, and AKP-tdt murine colorectal cancer organoids; assay: Cellular toxicity across the A-tdt, AP-tdt and AKP-tdt organoid series; format: cell-based; conditions: series of A-tdt
Description: Colonic crypts were isolated and colon organoids were generated from the following mouse genotypes on a C57Bl/6 background: 1. Rosa-LSL-TdTomato (hereafter LSL-tdt), 2. P53^f1/f1; LSL-tdt, and 3. LSL-KRAS^G12D/WT; P53^fl/fl; LSL-tdt mice. Subsequently, the pSECC-APC plasmid (carrying Cre, Cas9, and sgAPC) was transfected into each of the above three genotypes of colon organoids. This transfection strategy generated, in a single step, the following colorectal cancer organoids, including 1. APC^−/−; TdTomato^+ (A-tdt), 2. APC^−/−; P53^−/−; TdTomato^+ (AP-tdt), and 3. APC^−/−; KRAS^G12D/WT; P53^−/−; TdTomato^+ (AKP-tdt). Organoids of the desired genotype were selected for by Wnt/Rspo withdrawal for APC^−/−, Nutlin-3 addition for P53^−/−, and EGF withdrawal for KRAS^G12D.
Twenty four hours after seeding the organoids, a media change was performed and dose responses of oxaliplatin, doxorubicin and doxaliplatin were added. Forty eight hours after treatment, cell growth was evaluated by resazurin assay. Organoids were cultured in Advanced DMEM/F12 supplemented with 2 mM GlutaMAX, 1% Penicillin-Streptomycin, 2% B27, and Y-27632 (10 μM).

[2] = system: APC−/−; KRASG12D/WT; P53−/− (AKP) organoids; assay: Viability of AKP murine colorectal cancer organoids; format: cell-based
Description: To generate 4. APC^−/−; KRAS^G12D/WT; P53^−/−; (AKP) and 5. APC^−/−; KRAS^G12D/WT; P53^−/−; MSH2^−/− (AKP-MSH2) colon cancer organoids, colonic crypts were isolated and colon organoids were generated from the following mouse genotypes on a C57Bl/6 background: 4. LSL-KRAS^G12D/WT; P53^fl/fl mice and 5. LSL-KRAS^G12D; P53^fl/fl; MSH2^fl/fl mice. Subsequently, the pSECC-APC plasmid (carrying Cre, Cas9, and sgAPC) was transfected into each of the above two genotypes of colon organoids. Following pSECC-APC transfection, Wnt/Rspo withdrawal was performed and surviving (APC^−/−) single organoids were cloned and PCR genotyped for Cre mediated deletion of p53 and/or MSH2, and for Cre mediated activation of oncogenic KRAS^G12D.
Twenty four hours after seeding the organoids, a media change was performed and dose responses of oxaliplatin, doxorubicin and doxaliplatin were added. […] Organoids were cultured in Advanced DMEM/F12 supplemented with 2 mM GlutaMAX, 1% Penicillin-Streptomycin, 2% B27, and Y-27632 (10 μM).

[3] = system: OVCAR8-OXR oxaliplatin-resistant human ovarian cancer cell line; assay: Cell growth, resazurin assay, OVCAR8-OXR; conditions: 72-h exposure; for Fold Resistance (IC50, OVCAR8OXR vs OVCAR8): based on IC50 values
Description: Cells were cultured in 10 mL of Advanced DMEM/F12 (ADMEM/F12), supplemented with 5% FBS, 2 mM GlutaMAX, and 1% Penicillin-Streptomycin in 10 cm tissue culture plates. Cells were then plated into 96-well plates with about 2.5×10^3 cells per well. Cells were plated with 200 μL per well of ADMEM/F12 supplemented with 5% FBS, 2 mM GlutaMAX, and 1% Penicillin-Streptomycin. […] The cells were then cultured for 72 hours following drug treatment, and cell growth was measured by resazurin assay.

[4] = system: A2780 human ovarian cancer cell line; assay: Cell growth, resazurin assay, A2780; format: cell-based; conditions: A2780, 72-h exposure
Description: Cells were cultured in 10 mL of Advanced DMEM/F12 (ADMEM/F12), supplemented with 5% FBS, 2 mM GlutaMAX, and 1% Penicillin-Streptomycin in 10 cm tissue culture plates. Cells were then plated into 96-well plates with about 2.5×10^3 cells per well. Cells were plated with 200 μL per well of ADMEM/F12 supplemented with 5% FBS, 2 mM GlutaMAX, and 1% Penicillin-Streptomycin. Cells were treated with dose responses of doxorubicin, oxaliplatin, or doxaliplatin upon plating. The cells were then cultured for 72 hours following drug treatment, and cell growth was measured by resazurin assay.

IC50 ([2]; 72-h exposure, read-out: IC50 against AKP organoids): 110 nM | Potency relative to oxaliplatin (by IC50) ([2]; AKP organoids): 13 fold | Fold Resistance (IC50, OVCAR8OXR vs OVCAR8) [3]: 1.0 fold | Fold Resistance (IC50, OVCAR8OXR vs OVCAR8) ([3]; listed as doxaliplatin): no change in the IC50 value | IC50 ([3]; read-out: IC50 OVCAR8OXR): 140 ± 10 nM | IC50 [4]: 16 nM | IC90 [4]: 380 nM
Compound: COc1cccc2c1C(=O)c1c(O)c3c(c(O)c1C2=O)CC(O)(C(=O)CO)CC3OC1CC(N)C(N)C(C)O1.O=C1[O][Pt][O]C1=O (centres unmarked) [DoxPt, Doxaliplatin]
Cellular toxicity relative to oxaliplatin [1]: three to ten-fold higher cellular toxicity than oxaliplatin | Fold Resistance (IC80, OVCAR8OXR vs OVCAR8) ([3]; based on IC80 values): 0.6 fold | IC80 ([3]; read-out: IC80 OVCAR8OXR): 230 ± 10 nM | IC95 [4]: 0.68 µM
